Measurements: patent publication US8956842B2, “Paenibacillus sp. HPL-3 strain producing xylanase having heat-resistance, a wide range of optimum pH and high activity, a novel xylanase separated from the strain, and a method for mass-production of the same using the transformant originated from the strain” (Korea Research Institute of Chemical Technology, priority 2011, dated 2015)
Read-outs that look alike come from different tables or passages of the source. Blank lines part the entries; values can stand above or below the molecule they belong to.

Assays:
novel xylanase = assay: Effect of metal ions and additives on xylanase activity (DNS method); assay type: biochemical, Paenibacillus sp. HPL-3
Description: (§1) The measurement of xylanase activity (xylan decomposing activity) of the isolated strain, active clone, transformant, and isolated/purified enzyme was performed by either or both of the following two methods. The first method was enzyme activity measuring method using solid culture. Particularly, soft agar double medium was prepared by adding birch xylan (Fluka Bio Chemika. Co.) to LB medium by 0.5˜1.0%, to which the strain was inoculated, followed by culture for overnight. On the next day, the strain and active clone forming translucent zone (halo) around the cultured colony were selected by Congo-red staining. The second method was enzyme activity measuring method using liquid culture, that is DNS (3,5-dinitrosalicylic acid) quantitative method (Miller G. L. Anal Chem 31, 426-428, 1959). Particularly, 50 μl of substrate solution (50 mM Tris-HCl containing birch xylan by 2%, pH 7.0) was added to 50 μl of enzyme solution, followed by reaction at 50° C. for 20 minutes. 200 μl of DNS solution was added thereto, followed by further reaction at 90° C. for 5 minutes. Then, OD540 was measured. 1 unit of the enzyme was defined as the enzyme activity of 1 mg xylanase to produce 1 μmol of reducing sugar (xylose) per 1 minute.
To investigate the effect of metal ions on xylanase activity, CaCl2, MgCl2, MgCl2, CuCl2, ZnCl2, and FeCl3 were added by 1 mM each. It was further investigated how other salts such as NaCl, LiCl, KCl, NH4Cl, EDTA, CsCl2, 2-ME (2-Mercaptoethanol), DTT (Dithiothreitol), PMSF (Penylmethylsulfonyl fluoride), acetate, and furfural could affect xylanase activity.

[1] = Xylanase activity (xylan decomposing activity) by DNS quantitative method at different pH and temperature; assay type: biochemical
Description: as §1, with “minute. One clone showing the best activity, GM3-SLX1, was selected by liquid culture and solid culture activity test (FIG. 2).” for “minute.”
In this example, pH, temperature, and metal ion-dependent activity of xylanase over-expressed and isolated from the E. coli transformant over-expressing the novel xylanase constructed in Example <3-4> was investigated by the same manner as described in example 3-2. pH of the reaction solution was regulated to pH 4˜5 with citric acid buffer, to pH 6˜8 with phosphate buffer, to pH 7˜9 with Tris/HCl buffer, and to pH 9˜11 with glycine/NaOH buffer. To investigate the effect of metal ions on xylanase activity, CaCl2, MgCl2, MgCl2, CuCl2, ZnCl2, and FeCl3 were added by 1 mM each. It was further investigated how other salts such as NaCl, LiCl, KCl, NH4Cl, EDTA, CsCl2, 2-ME (2-Mercaptoethanol), DTT (Dithiothreitol), PMSF (Penylmethylsulfonyl fluoride), acetate, and furfural could affect xylanase activity.
E. coli BL21-Gold (DE) (Stratagene, USA) was transfected with pIVEX GST-xylanase recombinant vector (Bioprogen Co., Ltd., Korea) containing the gene (SEQ. ID. NO: 3) encoding the novel xylanase represented by SEQ. ID. NO: 4, which was inoculated in liquid medium (LB 25 g/L) supplemented with ampicillin (50 μg/ml), followed by shaking culture at 37° C. at 150 rpm until […] reached 0.4˜0.6. To induce the expression of the target protein in E. coli cells, IPTG (isopropyl-D-thiogalactoside) was added to the suspension at the concentration of 1 mM, followed by further culture for 3 hours. The culture solution was centrifuged at 10,000 rpm for 10 minutes and the recovered precipitate was washed with PBS twice. The washed precipitate was re-suspended in PBS and then cell were lysed by using a ultrasonicator (Cosmo Bio Co., LTD). Centrifugation was performed (12,000 rpm, 10 minutes) to obtain supernatant. To isolate xylanase from the supernatant, glutathione S-transferase column (GST binding resin column, Novagen) was used. For xylanase separation, the obtained supernatant was filled in glutathione S-transferase column (GST binding resin column, Novagen) equilibrated with washing buffer (50 mM Tris-HCl, 100 mM NaCl; pH 7.0), followed by treatment of factor Xa protease (NEB) and separation using washing buffer (50 mM Tris-HCl, 100 mM NaCl; pH 7.0). The enzyme activity of xylanase in each sample recovered from the purification stage was investigated. The purification of active fraction showing the enzyme activity was confirmed by SDS-PAGE. Protein content was measured by using Bradford method (Bradford, Sigma Aldrich), and BSA (bovine serum albumin) was used as the standard protein.

[2] = Enzymatic reaction rate (Lineweaver-Burk) of the purified xylanase; assay type: biochemical
[3] = 1 mM additive, negative control = 100
[4] = 1 mM of heavy metal or additive

Molecule: [Cl-].[K+] [KCl]
- Relative activity according to conc. of additive (%) (novel xylanase; [3]): 101%

Molecule: [Cl-].[Na+] [NaCl]
- Relative activity according to conc. of additive (%) (novel xylanase): 105%

Molecule: Cl.N [NH4Cl]
- Relative activity according to conc. of additive (%) (novel xylanase; [3]): 99%

Molecule: O=S(=O)(F)Cc1ccccc1 [PMSF, Penylmethylsulfonyl fluoride]
- Relative activity according to conc. of additive (%) (novel xylanase; [3]): 95%

Molecule: [Ca+2].[Cl-].[Cl-] [CaCl2]
- Relative activity according to conc. of additive (%) (novel xylanase; [3]): 102%

Molecule: O=S(=O)([O-])[O-].[Cu+2] [CuSO4]
- Relative activity according to conc. of additive (%) (novel xylanase; [3]): 26%
- xylanase activity inhibited by (novel xylanase; [4]): 74%
- enzyme activity in presence of additive (novel xylanase; concentration of 100 HM): hardly affected

Molecule: [Cl-].[Li+] [LiCl]
- Relative activity according to conc. of additive (%) (novel xylanase; [3]): 101%

- Relative activity according to conc. of additive (%) (novel xylanase; [3]): 101%
Molecule: CC(=O)O [Acetate]

Molecule: [Cl-].[Cs+] [CsCl2]
- Relative activity according to conc. of additive (%) (novel xylanase; [3]): 97%

- Relative activity according to conc. of additive (%) (novel xylanase; [3]): 89%
Molecule: OCCS [2-ME, 2-Mercaptoethanol]

Molecule: [Cl][Mn][Cl] [MnCl2]
- Relative activity according to conc. of additive (%) (novel xylanase; [3]): 98%

Molecule: O=C(O)CN(CCN(CC(=O)O)CC(=O)O)CC(=O)O [EDTA]
- Relative activity according to conc. of additive (%) (novel xylanase): 54%
- enzyme activity in presence of additive (novel xylanase): hardly affected
- xylanase activity inhibited by (novel xylanase): 46%

- Relative activity according to conc. of additive (%) (novel xylanase; [3]): 95%
Molecule: O[C@H](CS)[C@H](O)CS (racemic) [DTT, Dithiothreitol]

Molecule: O=Cc1ccco1 [Furfural, furfural]
- Relative activity according to conc. of additive (%) (novel xylanase; [3]): 98%

Molecule: O=S(=O)([O-])[O-].[Zn+2] [ZnSO4]
- Relative activity according to conc. of additive (%) (novel xylanase; [3]): 72%
- xylanase activity inhibited by (novel xylanase; [4]): 28%
- enzyme activity in presence of additive (novel xylanase; concentration of 100 HM): hardly affected

Molecule: [Cl][Fe]([Cl])[Cl] [FeCl3]
- Relative activity according to conc. of additive (%) (novel xylanase; [3]): 88%
- xylanase activity inhibited by (novel xylanase; [4]): 12%
- enzyme activity in presence of additive (novel xylanase; concentration of 100 HM): hardly affected

Molecule: [Cl-].[Cl-].[Mg+2] [MgCl2]
- Relative activity according to conc. of additive (%) (novel xylanase; [3]): 93%

- activity of purified enzyme compared with before purification ([1]; after glutathione resin column purification): at least 5 times
B1: novel xylanase: approximately 65 kD xylanase of Paenibacillus sp. HPL-3, amino acid sequence SEQ. ID. NO: 4, produced in E. coli transformant (protein)
chain: MDTLKLYVESSNPAQAYYLDEVEIRQVSETPTTPPTEPTSGIESRFEDGTAQGWVSRMGTETVQVSNADARTGSYSLLTTGRQQTYAGPKLDVTATVQKGSRYTVSAWVKLAPGEQQPAKVRLSVQRDHQGESTYETVVGNTAITTGGWTHLYGTYTLAHEADTVSMYLETPEGTASFYMDDFELSLVPPLAIEKDIPSLHGLYQGQFSIGTAIEAFQTEGAYGELVQKHFNSVVAGNAMKPISLQPSEGQFHWEEADRIVQFAQQHGIAIRFHTLVWHNQTGDWMFKDKNGQPMTPTAENKKLLLDRLETHIRAVAARYKNVITDWDVVNEVIDPDQPDGMRRSKWYQITGTDYIDKAFRVTREAAGPNARLYINDYNTHEPKKRDFLYNLVRDLLAKGVPIDGVGHQSHIRLEFPAIDEMEQSIEKFASLGLDNQITELDMGLYSNDTDHYETIPEAMLIRQAHRYRALFDMFSRQQEHISNVTIWGTDDGNTWLSMFPIARLDKPLLFDERLKAKYAYWALVDPSKVPPLPAGSNE
modifications: SLX-O9 protein sequence
notes: approximately 65 kD xylanase of Paenibacillus sp; ID; NO: 4, produced in E. coli transformant
- enzyme activity ([1]; 50° C., pH 5.0): 97.37 units
- enzyme activity ([1]; 50° C., pH 6.0): 124.19 units
- enzyme activity ([1]; 50° C., pH 7.0): 122.21 units
- enzyme activity ([1]; 50° C., pH 8.0): 124.61 units
- enzyme activity ([1]; 50° C., pH 9.0): 122.95 units
- enzyme activity ([1]; 50° C., pH 10.0): 103.27 units
- enzyme activity ([1]; 50° C., pH 11.0): 96.08 units
- enzyme activity ([1]; 60° C., pH 5.0, units = μM of xylose produced by 1 mg of enzyme per 1 minute): 26.93 units
- enzyme activity ([1]; 60° C., pH 6.0): 105.19 units
- enzyme activity ([1]; 60° C., pH 7.0): 123.56 units
- enzyme activity ([1]; 60° C., pH 8.0): 120.95 units
- enzyme activity ([1]; 60° C., pH 9.0): 112.25 units
- enzyme activity ([1]; 60° C., pH 10.0): 29.89 units
- enzyme activity ([1]; 60° C., pH 11.0): 22.76 units
- xylanase activity when conjugated onto the resin ([1]; glutathione resin): not changed
- xylanase activity against other xylans (beech, oats, etc) compared with birch xylan [2]: similar
